Measurements published in patent US20240301501A1, “A METHOD FOR ASSESSING THE POTENTIAL EFFECT OF THERAPEUTICS ON AN INDIVIDUAL” (AGENCY FOR SCIENCE TECHNOLOGY AND RESEARCH, priority 2022, published 2024).
Like-named read-outs stand apart in the source and are kept apart here.

Legend:
[1] = Measurement of tamoxifen metabolites in finger-prick blood (VAMS, UPLC-MS/MS); type: in vivo, human (Indonesian ER+ breast cancer patients); settings: for range of metabolite levels before dose adjustment / range of metabolite levels after dose adjustment: IM patients (n=26); for range of metabolite levels before dose adjustment: tamoxifen 20 mg daily; for range of metabolite levels after dose adjustment: tamoxifen 40 mg daily for two months; for concentration at 8 weeks: human, whole blood (finger-prick, VAMS), oral, 40 mg daily, read-out: range of metabolite levels after dose adjustment
Description: Finger-prick blood sample was obtained using Volumetric Absorptive Microsampling (VAMS) technique. VAMS extraction was performed in methanol by sonication-assisted extraction method for 25 minutes after 2 hours of VAMS drying. Separation was carried out using Acquity UPLC BEH C1s column (2.1×100 mm; 1.7 μm), with a flow rate of 0.2 mL/minute, and the mobile phase gradient of formic acid 0.1% combined with formic acid 0.1% in acetonitrile for 5 minutes. The UPLC-MS/MS Waters Xevo TQD Triple Quadrupole with MassLynx Software controller (Waters, Milford, USA) was employed in metabolites measurement. Mass detection was carried out utilizing Triple Quadrupole (TOD) with Multiple Reaction Monitoring (MRM) analysis modes and an electrospray ionization source using positive mode. The method was developed in the Bioavailability and Bioequivalence Laboratory of Universitas Indonesia and validated according to FDA and EMA guidelines. The multiple reaction monitoring (MRM) value were set at m/z 372.28>72.22 for TAM; 374.29>58.22 for END; 388.29>72.19 for 4-HT; 358.22>58.09 for NDT; and 260.20>116.20 for propranolol as the internal standard.
(§1) This group of patients were determined based on clinical judgement according to the available guidelines by The National Surgical Oncologist Organization and Ministry of Health in Indonesia (Komite Penanggulangan Kanker Nasional, n.d.), National Comprehensive Cancer Network (NCCN, 2021), and British Columbia Cancer Agency.
(§2) Data and statistical analysis were performed using Microsoft® Excel® for Microsoft 365 and R version 4.0.3. Deviation from Hardy-Weinberg equilibrium was performed on the haplotype frequencies using the chi-square statistical test, where Bonferonni correction was applied to determine the p-value threshold for significant deviation. Analysis of Variance (ANOVA) test was used to see if metabolite levels distribution at baseline were statistically different across all metabolites, followed by a paired T-test between each pair of metabolites when significance was found. Distribution of metabolite levels before and after dose adjustment was compared using a T-test, and the same test was used to compare the distribution of metabolite levels in IMs post-dose adjustment against NMs (baseline). Concerning symptoms related to endocrine therapy post-dose adjustment on IMs were compared against NMs. Chi-square test was performed per symptom to check for the difference between the two groups.

[2] = cited from earlier work
[3] = Endocrine symptoms / side effects of tamoxifen therapy, FACT-ES questionnaire; type: in vivo, human (Indonesian ER+ breast cancer patients)
Description: as §1, §2

[4] = CYP2D6 Intermediate Metabolizer (N = 61), baseline
[5] = CYP2D6 Normal Metabolizer (N = 81), baseline
[6] = CYP2D6 Poor Metabolizer (N = 2), baseline
[7] = IM participants, 40 mg tamoxifen daily (N = 22), eight weeks after dose adjustment
[8] = IM participants, 40 mg tamoxifen daily, eight weeks after dose adjustment
[9] = IMs, 40 mg tamoxifen daily, n=26
[10] = NM participants, 20 mg tamoxifen daily (N = 31)
[11] = NMs, 20 mg tamoxifen daily, n=31

4-hydroxytamoxifen
range of metabolite levels before dose adjustment [1]: 1.5 to 9.31 ng/mL | range of metabolite levels after dose adjustment [1]: 3.34 to 12.99 ng/mL

CC/C(=C(\c1ccc(O)cc1)c1ccc(OCCN(C)C)cc1)c1ccccc1 [4OH-tam]
Peripheral Whole Blood Concentration, Median [1, 4]: 3.27 ng/mL | Peripheral Whole Blood Concentration, Range [1, 4]: 1.5 to 9.31 ng/mL | Peripheral Whole Blood Concentration, Median [1, 5]: 3.07 ng/mL | Peripheral Whole Blood Concentration, Range [1, 5]: 1.5 to 7.66 ng/mL | Peripheral Whole Blood Concentration, Median [1, 6]: 3.24 ng/mL | Peripheral Whole Blood Concentration, Range [1, 6]: 3.06 to 3.43 ng/mL

CC/C(=C(\c1ccccc1)c1ccc(OCCNC)cc1)c1ccccc1 [N-desmethyltamoxifen]
range of metabolite levels before dose adjustment [1]: 77.61 to 337.29 ng/mL | range of metabolite levels after dose adjustment [1]: 236.8 to 501.9 ng/mL

CC/C(=C(\c1ccccc1)c1ccc(OCCNC)cc1)c1ccccc1 [ND-tam]
Peripheral Whole Blood Concentration, Median [1, 4]: 241.55 ng/mL | Peripheral Whole Blood Concentration, Range [1, 4]: 77.61 to 337.29 ng/mL | Peripheral Whole Blood Concentration, Median [1, 5]: 240.59 ng/mL | Peripheral Whole Blood Concentration, Range [1, 5]: 80.63 to 321.88 ng/mL | Peripheral Whole Blood Concentration, Median [1, 6]: 276.45 ng/mL | Peripheral Whole Blood Concentration, Range [1, 6]: 212.5 to 340.41 ng/mL

CC/C(=C(\c1ccc(O)cc1)c1ccc(OCCNC)cc1)c1ccccc1 [endoxifen, 4-hydroxy-N-desmethyltamoxifen]
Peripheral Whole Blood Concentration, Median [1, 4]: 8.33 ng/mL | Peripheral Whole Blood Concentration, Range [1, 4]: 3.17 to 22.97 ng/mL | Peripheral Whole Blood Concentration, Median [1, 5]: 11.98 ng/mL | Peripheral Whole Blood Concentration, Range [1, 5]: 3.55 to 34.77 ng/mL | Peripheral Whole Blood Concentration, Median [1, 6]: 4.52 ng/mL | Peripheral Whole Blood Concentration, Range [1, 6]: 3.94 to 5.11 ng/mL | range of metabolite levels before dose adjustment [1]: 3.17 to 22.97 ng/mL | endoxifen levels in NMs at baseline ([1]; NM patients (n=81), tamoxifen 20 mg/day, baseline): 3.55 to 34.77 ng/mL | concentration at 8 weeks [1]: 7.68 to 23.4 ng/mL | average endoxifen level of IMs ([1]; this study, IMs): 9.6 ng/mL | average endoxifen level of IMs ([2]; previous study): 8.1 ng/mL | range of endoxifen level ([2]; study in Singaporean population): 1.74 to 42.8 ng/mL | range of endoxifen level ([2]; study in Swedish population): 2.3 to 16 ng/mL

CC/C(=C(\c1ccccc1)c1ccc(OCCN(C)C)cc1)c1ccccc1 [tamoxifen]
Peripheral Whole Blood Concentration, Median [1, 4]: 81.72 ng/mL | Peripheral Whole Blood Concentration, Range [1, 4]: 14.22 to 210.39 ng/mL | Peripheral Whole Blood Concentration, Median [1, 5]: 77.46 ng/mL | Peripheral Whole Blood Concentration, Range [1, 5]: 31.22 to 170.82 ng/mL | Peripheral Whole Blood Concentration, Median [1, 6]: 91.49 ng/mL | Peripheral Whole Blood Concentration, Range [1, 6]: 67.49 to 115.48 ng/mL | range of metabolite levels before dose adjustment [1]: 14.22 to 210.39 ng/mL | concentration at 8 weeks [1]: 80.6 to 255 ng/mL | toxicity or side effects on dose escalation ([3]; 40 mg daily versus 20 mg daily, eight weeks after dose adjustment): did not increase potential toxicity or side effects | Cold Sweats: Patients reported side effect (%) [3, 7]: 19.23% | Diarrhea: Patients reported side effect (%) [3, 7]: 0.00% | Headaches: Patients reported side effect (%) [3, 7]: 53.85% | Hot Flashes: Patients reported side effect (%) [3, 7]: 50.00% | Lightheaded (dizzy): Patients reported side effect (%) [3, 7]: 34.62% | Mood swings: Patients reported side effect (%) [3, 7]: 65.38% | Pain in joints: Patients reported side effect (%) [3, 7]: 50.00% | Pain or discomfort with intercourse: Patients reported side effect (%) [3, 7]: 3.85% | Breast sensitivity/tenderness: Patients reported side effect (%) [3, 8]: 53.85% | Irritable: Patients reported side effect (%) [3, 8]: 61.54% | Lost interest in sex: Patients reported side effect (%) [3, 8]: 15.38% | Night sweats: Patients reported side effect (%) [3, 8]: 26.92% | Vaginal bleeding or spotting: Patients reported side effect (%) [3, 8]: 23.08% | Vaginal discharge: Patients reported side effect (%) [3, 8]: 42.31% | Vaginal dryness: Patients reported side effect (%) [3, 8]: 11.54% | Vaginal itching/irritation: Patients reported side effect (%) [3, 8]: 15.38% | Vomiting: Patients reported side effect (%) [3, 8]: 3.85% | Weight gain: Patients reported side effect (%) [3, 8]: 65.38% | breast sensitivity or tenderness, participants reporting [3, 9]: 53.85% | cold sweats, participants reporting [3, 9]: 19.23% | headaches, participants reporting [3, 9]: 53.85% | hotflush, participants reporting [3, 9]: 50% | irritability, participants reporting [3, 9]: 61.54% | lightheaded/dizziness, participants reporting [3, 9]: 34.62% | lost interest in sex, participants reporting [3, 9]: 15.38% | mood swings, participants reporting [3, 9]: 65.83% | night sweats, participants reporting [3, 9]: 26.92% | pain in joints, participants reporting [3, 9]: 50% | pain or discomfort during intercourse, participants reporting [3, 9]: 3.85% | vaginal bleeding or spotting, participants reporting [3, 9]: 23.08% | vaginal discharge, participants reporting [3, 9]: 42.31% | vaginal dryness, participants reporting [3, 9]: 11.54% | vaginal itching or irritation, participants reporting [3, 9]: 15.38% | vomiting, participants reporting [3, 9]: 3.85% | weight gain, participants reporting [3, 9]: 65.83% | diarrhea, participants reporting ([3]; IMs, 40 mg tamoxifen daily, post-dose adjustment): No post-dose adjustment participants reported diarrhea | Breast sensitivity/tenderness: Patients reported side effect (%) [3, 10]: 41.94% | Cold Sweats: Patients reported side effect (%) [3, 10]: 12.90% | Diarrhea: Patients reported side effect (%) [3, 10]: 3.23% | Headaches: Patients reported side effect (%) [3, 10]: 29.03% | Hot Flashes: Patients reported side effect (%) [3, 10]: 35.48% | Irritable: Patients reported side effect (%) [3, 10]: 58.06% | Lightheaded (dizzy): Patients reported side effect (%) [3, 10]: 35.48% | Lost interest in sex: Patients reported side effect (%) [3, 10]: 64.52% | Mood swings: Patients reported side effect (%) [3, 10]: 74.19% | Night sweats: Patients reported side effect (%) [3, 10]: 29.03% | Pain in joints: Patients reported side effect (%) [3, 10]: 67.74% | Pain or discomfort with intercourse: Patients reported side effect (%) [3, 10]: 51.61% | Vaginal bleeding or spotting: Patients reported side effect (%) [3, 10]: 16.13% | Vaginal dryness: Patients reported side effect (%) [3, 10]: 32.26% | Vaginal itching/irritation: Patients reported side effect (%) [3, 10]: 22.58% | Vomiting: Patients reported side effect (%) [3, 10]: 6.45% | Weight gain: Patients reported side effect (%) [3, 10]: 64.52% | breast sensitivity or tenderness, respondents reporting [3, 11]: 41.94% | cold sweats, respondents reporting [3, 11]: 12.9% | diarrhea, respondents reporting [3, 11]: 3.23% | headaches, respondents reporting [3, 11]: 29.03% | hotflush, respondents reporting [3, 11]: 35.48% | irritability, respondents reporting [3, 11]: 58.06% | lightheaded/dizziness, respondents reporting [3, 11]: 35.48% | lost interest in sex, respondents reporting [3, 11]: 64.52% | mood swings, respondents reporting [3, 11]: 74.19% | night sweats, respondents reporting [3, 11]: 29.03% | pain in joints, respondents reporting [3, 11]: 67.74% | pain or discomfort during intercourse, respondents reporting [3, 11]: 51.61% | vaginal bleeding or spotting, respondents reporting [3, 11]: 16.13% | vaginal dryness, respondents reporting [3, 11]: 32.26% | vaginal itching or irritation, respondents reporting [3, 11]: 22.58% | vomiting, respondents reporting [3, 11]: 6.45% | thrombophlebitis, thrombosis, endometriosis, and endometrial cancer ([3]; observed population, short follow up): none of these side effects were observed
